Data from patent US6995178B2, “Insecticidal anthranilamides” (E. I. du Pont de Nemours and Company, priority 2000, dated 2006).

Cc1cccc(C(=O)NC(C)C)c1NC(=O)c1cnc(C(F)(F)F)nc1C [Example 5, 4-Methyl-N-[2-methyl-6-[[(1-methylethyl)amino]carbonyl]phenyl]-2-(trifluoromethyl)-5-pyrimidinecarboxamide]
melting point: 216 to 217 °C
